Paper PMC8213153 (PLoS ONE, 2021)
In brackets after ≈: the same amount, converted by molar mass. Read-outs that look alike come from different tables or passages of the source.

Key:
Format in all cases: cell-based
[1] = Cytotoxicity (MTT) assay of single and dual combinatory drugs; conditions: human; for CC50 at 48 h: CompuSyn, n = 3, read-out: CC50
SARS-CoV-2 virus = test: microbe, parasite or virus in culture; conditions: for IC50: Severe acute respiratory syndrome coronavirus 2, Vero
IL-10 = IL-10 level of virus-infected Vero cells (ELISA)
In short: (§1)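 Medium from treated virus-infected Vero cells centrifuged 3,500 rpm for 20 min; supernatants diluted 1:5 in water. Sandwich ELISA incubated 60 min at 37 °C, substrate 10 min at 37 °C; cytokine concentrations derived from OD against standard curves.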

IL-6 = IL-6 level of virus-infected Vero cells (ELISA)
In short: as §1

TNF-α = TNF-α level of virus-infected Vero cells (ELISA)
In short: as §1

[2] = HYDROXYCHLOROQUINE-AZITHROMYCIN series, read-out: Cell Viability (%)
[3] = HYDROXYCHLOROQUINE-DOXYCYCLINE series, read-out: Cell viability (%)
[4] = HYDROXYCHLOROQUINE-FAVIPIRAVIR series, read-out: Cell Viability (%)
[5] = HYDROXYCHLOROQUINE-LOPIRITO series, read-out: Cell Viability (%)

Question: What does the source list for CCN(CCO)CCCC(C)Nc1ccnc2cc(Cl)ccc12 (stereo not shown) [HCQ, Hydroxychloroquine]?
Answer: CC50 at 48 h ([1]; HCQ-AZI experiment (Fig 7)): 5940 µg/mL; CC50 at 48 h ([1]; HCQ-DOXY experiment (Fig 8)): 1500 µg/mL; CC50 at 48 h ([1]; HCQ-FAVI experiment (Fig 10)): 11.8 µg/mL; CC50 at 48 h ([1]; HCQ-LOPIRITO experiment (Fig 11)): 2.51 µg/mL; viability at 48 h, 0.2 μg/mL [1, 2]: 85.6%; viability at 48 h, 2 μg/mL [1, 2]: 91%; viability at 48 h, 10 μg/mL [1, 2]: 94.4%; viability at 48 h, 100 μg/mL [1, 2]: 46.6%; viability at 48 h, 400 μg/mL [1, 2]: 68.6%; viability at 48 h, 0.2 μg/mL [1, 3]: 97.1%; viability at 48 h, 2 μg/mL [1, 3]: 97%; viability at 48 h, 10 μg/mL [1, 3]: 98.9%; viability at 48 h, 100 μg/mL [1, 3]: 62.1%; viability at 48 h, 400 μg/mL [1, 3]: 56.9%; viability at 48 h, 0.2 μg/mL [1, 4]: 51.5%; viability at 48 h, 2 μg/mL [1, 4]: 81.9%; viability at 48 h, 10 μg/mL [1, 4]: 93.7%; viability at 48 h, 100 μg/mL [1, 4]: 13.3%; viability at 48 h, 400 μg/mL [1, 4]: 9.5%; viability at 48 h, 0.2 μg/mL [1, 5]: 35.9%; viability at 48 h, 2 μg/mL [1, 5]: 61.7%; viability at 48 h, 10 μg/mL [1, 5]: 81.4%; viability at 48 h, 100 μg/mL [1, 5]: 33%; viability at 48 h, 400 μg/mL [1, 5]: 7.4%; Virus Titer (SARS-CoV-2 virus; 1 μg/mL, 24-h): 38.64 viral protein fg/mL; Virus Titer (SARS-CoV-2 virus; 1 μg/mL, 72-h): 37.69 viral protein fg/mL; Virus Titer (SARS-CoV-2 virus; 15 μg/mL, 48-h): 37.86 viral protein fg/mL; Drug concentration that produced an undetected virus copy number (SARS-CoV-2 virus; MoI 0.04, at 24, 48, and/or 72 hours' incubation): 37.5 µg/mL; IC50 (SARS-CoV-2 virus; 24h, MoI 0.04): 9.5 µg/mL (≈ 28.3 µM); IC50 (SARS-CoV-2 virus; 48h, MoI 0.04): 4.7 µg/mL (≈ 14 µM); IC50 (SARS-CoV-2 virus; 72h, MoI 0.04): 1.4 µg/mL (≈ 4.17 µM); Results (virus detection) (SARS-CoV-2 virus; at the drug concentration of the same line of Table 4, MoI 0.04): 48, 72h virus undetected; IL-10 (IL-10; 1 μg/mL, 24-h): 15.36 ± 0.75 pg/mL; IL-10 (IL-10; 1 μg/mL, 48-h): 96.36 ± 0.71 pg/mL; IL-10 (IL-10; 1 μg/mL, 72-h): 329.79 ± 0.08 pg/mL; IL-10 (IL-10; 15 μg/mL, 24-h): 32.43 ± 1.19 pg/mL; IL-10 (IL-10; 15 μg/mL, 72-h): 258.02 ± 9.73 pg/mL; IL-10 (IL-10; 15 μg/mL, 48h): ↗↗ (15 μg/mL; 48h); IL-10 levels (in words) (IL-10; Table 5): increased; IL-6 (IL-6; 1 μg/mL, 24-h): 15.91 ± 0.99 ng/L; IL-6 (IL-6; 1 μg/mL, 48-h): 36.41 ± 2.01 ng/L; IL-6 (IL-6; 1 μg/mL, 72-h): 47.64 ± 2.15 ng/L; IL-6 (IL-6; 1 μg/mL, 24h): ↘↘ (1 μg/mL; 24h); IL-6 (IL-6; 15 μg/mL, 24-h): 15.91 ± 1.41 ng/L; IL-6 (IL-6; 15 μg/mL, 48-h): 36.41 ± 0.89 ng/L; IL-6 (IL-6; 15 μg/mL, 72-h): 39.80 ± 0.48 ng/L; IL-6 (in words) (IL-6; Table 5): reduced; TNF-α (TNF-α; 1 μg/mL, 24-h): 4.21 ± 0.31 pg/mL; TNF-α (TNF-α; 1 μg/mL, 72-h): 548.17 ± 1.44 pg/mL; TNF-α (TNF-α; 15 μg/mL, 72-h): 411.10 ± 0.18 pg/mL; TNF-α (TNF-α; 24, 48, and 72 hours, cell without concentration): No effects; TNF-α levels (in words) (TNF-α; Table 5): no effects
